Experimental data as given in PMC6270814, “Effects of Ursolic Acid Derivatives on Caco-2 Cells and Their Alleviating Role in Streptozocin-Induced Type 2 Diabetic Rats” (Molecules, 2014).

How the values were obtained:
Caco-2 cells = assay: MTT cytotoxicity assay on Caco-2 cells; type: cell-based, Human; conditions: Homo sapiens, 24 h, mean ± SD, n = 4, read-out: Inhibition Rate %
Protocol: Human intestinal Caco-2 cells (ATCC, Rockville, MD, USA) were incubated at 37 °C in a humidified atmosphere of 5% CO2 in air. The cells were cultured in Dulbecco’s […] medium (DMEM) with 10% heat-inactivated fetal bovine serum, 1% non-essential amino acids, 1% L-glutamine, 1% penicillin/streptomycin (Gibco Life Technologies, Grand Island, NY, USA). The cells were sub-cultured at confluence by 0.05% trypsin-0.5 mM EDTA treatment before they were applied in the experiment.
A MTT test was conducted to determine the possible toxicity of UA and its derivatives to Caco-2 cells. Briefly, cells were seeded at a density of 1 × 10^4 cells/mL in a 96-well plate and incubated for 24 h. The next day, cells were incubated with vehicle (0.1% DMSO) and compounds at 100, 50, 25, 12.5 μmol/L for 24 h, and then 5 g/L MTT solution (20 μL) was added for 4 h. Absorbance at 570 nm was measured using a Multimodel Plate Reader (Infinite 200, Tecan, Mannedorf, Switzerland).

[1] = test system: STZ-induced diabetic rats; assay: Fasting blood glucose in STZ-induced diabetic rats, 4 weeks treatment; type: in vivo, rat
Protocol: Adult male albino rats of Sprague-Dawley rats (180–220 g) were obtained from the Guangdong Medical Lab Animal Center, and maintained under standard laboratory conditions in a temperature (25–30 °C) and light-controlled (12-h light/dark cycle) room with 35%–60% humidity. The animals were acclimatized for 10 days before the experiments and provided with rodent chow and water ad libitum. The investigation was conducted in accordance with the Guide for the Care and Use of Laboratory Animals and approved by the institutional Animal Ethics Committee.
(§1) Diabetes was induced by a single intraperitoneal injection of streptozotocin (Sigma-Aldrich, St. Louis, MO, USA) at a dose of 65 mg/kg body weight. STZ was dissolved in 0.1 M cold citrate buffer, pH 4.5. Control group were injected with citrate buffer alone. After 7 days for the development of diabetes, plasma glucose levels were determined of each rat. Rats with fasting blood glucose (FBG) range of above 16.7 mmol/L were considered as DM rats and were used for further study.
(§2) According to the body weight and plasma glucose levels the rats were divided randomly into seven groups with six rats each and treated as follows: • Group I: Normal rats treated with 0.5% CMC-Na (2 mL/200 g body weight). • Group II: Diabetic rats treated with 0.5% CMC-Na. • Group III: Diabetic rats treated with 10 mg/kg of glibenclamide. • Group IV: Diabetic rats treated with 100 mg/kg of compound 1 (UA). • Group V: Diabetic rats treated with 100 mg/kg of compound 10. • Group VI: Diabetic rats treated with 100 mg/kg of compound 11. • Group VII: Diabetic rats treated with 100 mg/kg of compound 12.
(§3) The treatment was continued daily for 28 days. Blood glucose levels and body weight were measured every week to ascertain the status of diabetes. After 4 weeks of treatment, the animals were fasted for 12 h and sacrificed by cervical dislocation under mild anaesthetization, blood was collected into heparinized tubes and centrifuged at 2,000 rpm for 10 min. Livers and kidneys were removed, washed and homogenized in ice-cold normal saline. This homogenates were centrifuged at 3,000 rpm for 10 min at 4 °C, and the supernatants were collected for the estimate of antioxidant markers.
Fasting blood glucose levels were estimated on days 0, 7, 14, 28 with the single touch glucometer (Life Scan, Johnson & Johnson Company, New Brunswick, NJ, USA). Serum insulin level was measured by use of a commercial immunoassay kit by enzyme linked immunosorbent assay (Uscn. Life Science Inc., Wuhan, China). Serum total protein, albumin, triglycerides (TG), total cholesterol (TC), high-density lipoprotein cholesterol (HDL-C), and low-density lipoprotein cholesterol (LDL-C) were measured with an automatic biochemical analyzer (Sinnowa D240, Nanjing, China).

[2] = test system: STZ-induced diabetic rats; assay: Oxidative stress markers (GSH, SOD, MDA) in liver and kidney of STZ-induced diabetic rats; type: in vivo, rat; conditions: 4 weeks
Protocol: as §1, §2, §3
The tissue homogenates of liver and kidney were used for the estimate of antioxidant markers. Glutathione (GSH) level was measured with 5, 5'-dithiobis-(2-nitrobenzoic acid) (DTNB) as described by Sedlak and Lindsay. Superoxide dismutase (SOD) activity was assessed according to the method of Sinha. Malondialdehyde (MDA) activity was estimated with the thiobarbituric acid method.

SMILES: CCC(=O)O[C@H]1CC[C@@]2(C)C(CC[C@]3(C)C2CC=C2C4[C@@H](C)[C@H](C)CC[C@]4(C(=O)O)CC[C@]23C)C1(C)C (stereo partly shown) [Compound 10]
- inhibition at 100 µM (Caco-2 cells): 7.84 ± 4.15%
- Fasting Blood Glucose Level, Week 0 ([1]; STZ diabetic rats, Week 0 (before treatment), compounds 100 mg/kg, glibenclamide 10 mg/kg, n = 6): 320.40 ± 12.96 mg/dL
- Fasting Blood Glucose Level, Week 1 ([1]; STZ diabetic rats, Week 1, compounds 100 mg/kg, glibenclamide 10 mg/kg daily, n = 6): 270.00 ± 16.74 mg/dL
- Fasting Blood Glucose Level, Week 2 ([1]; STZ diabetic rats, Week 2, compounds 100 mg/kg, glibenclamide 10 mg/kg daily, n = 6): 286.20 ± 18.90 mg/dL
- Fasting Blood Glucose Level, Week 3 ([1]; STZ diabetic rats, Week 3, compounds 100 mg/kg, glibenclamide 10 mg/kg daily, n = 6): 234.00 ± 14.58 mg/dL
- Fasting Blood Glucose Level, Week 4 ([1]; STZ diabetic rats, Week 4, compounds 100 mg/kg, glibenclamide 10 mg/kg daily, n = 6): 225.00 ± 11.70 mg/dL
- decrease in blood glucose levels as compared with diabetic control ([1]; end of the 4 week treatment, compound 10 100 mg/kg, glibenclamide 10 mg/kg): 49.6%
- SOD level in the liver and kidney ([2]; liver and kidney of STZ diabetic rats): great improvement
- GSH level in liver ([2]; liver of STZ diabetic rats): significant effects
- MDA level in the liver ([2]; liver of STZ diabetic rats, daily administration): obviously down-regulated
